Measurements reported in patent publication US20260159465A1, “METHODS OF MAKING AND USING 1-METHYLEFFUSOL” (Laboratory for Synthetic Chemistry and Chemical Biology …, priority 2024, published 2026).

Tests used:
bone forming activities = details: prior studies (U.S. application Ser. No. 17/713,384; Chinese Application No. 202210551690.4); cited from earlier work
MC3T3-E1 osteoblasts [1] = assay: Stimulation of alkaline phosphatase (ALP) activity as a marker of bone forming activity; type: cell-based; details: 0.5 μM and 1.5 μM, 4 days; ASC+b-GP as positive control
Description: Cells were treated with 0.5 μM and 1.5 μM concentrations of 1-Methyleffusol for 4 days and the alkaline phosphatase (ALP) activity, as a marker of bone forming activity, was measured. Ascorbate and beta-glycerophosphate treatment (ASC+b-GP) was performed as positive control for ALP induction.

MC3T3-E1 osteoblasts [2] = assay: Promotion of osteoblast mineralization: calcium deposition by Alizarin Red staining; type: cell-based; details: 1.5 or 5 mM in osteoblast mineralization medium (OM), 14 days
Description: Cells were treated with 1-Methyleffusol (1.5 or 5 mM) in osteoblast mineralization medium (OM) for 14 days, and the calcium deposition in the cell layer was measured by Alizarin Red staining (images not shown).

alkaline phosphatase (ALP) activity (MC3T3-E1 osteoblasts [1]): stimulate ALP activity
Structure (SMILES): C=Cc1cc(O)c(C)c2c1-c1ccc(O)c(C)c1CC2 [1-Methyleffusol, 1,8-dimethyl-4-vinyl-9,10-dihydrophenanthrene-2,7-diol]
stimulation of bone forming activities (bone forming activities): exhibited the ability for stimulation of bone forming activities
mineralization (calcium deposition in the cell layer, Alizarin Red staining) (MC3T3-E1 osteoblasts [2]): promoted mineralization
